Measurements: patent publication US10072014B2 (Janssen Pharmaceutica NV, priority 2014, dated 2018)

Molecular target: T1, human mGlu2 receptor (Homo sapiens, UniProt Q14416)
T1 construct: expressed in transfected cells; host or cells: CHO cells
Assay: [35S]GTPγS binding assay, negative allosteric modulation of mGluR2
Format: biochemical
Conditions: maximal % inhibition relative to the control glutamate response (EC80 glutamate); read-out: GTPγS-hmGluR2 anGT Emax
From the text: The compounds provided in the present invention are negative allosteric modulators of mGluR2. These compounds appear to inhibit glutamate responses by binding to an allosteric site other than the glutamate binding site. The response of mGluR2 to a concentration of glutamate is decreased when compounds of Formula (I) are present. Compounds of Formula (I) are expected to have their effect substantially at mGluR2 by virtue of their ability to reduce the function of the receptor. The effects of negative allosteric modulators tested at mGluR2 using the [^35S]GTPγS binding assay method described below and which is suitable for the identification of such compounds, and more particularly the compounds according to Formula (I), are shown in Table 7.
1) [^35S]GTPγS Binding Assay
The [^35S]GTPγS binding assay is a functional membrane-based assay used to study G-protein coupled receptor (GPCR) function whereby incorporation of a non-hydrolysable form of GTP, [^35S]GTPγS (guanosine 5′-triphosphate, labelled with […] ^35S), is measured. The G-protein a subunit catalyzes the exchange of guanosine 5′-diphosphate (GDP) by guanosine triphosphate (GTP) and on activation of the GPCR by an agonist, [^35S]GTPγS, becomes incorporated and cannot be cleaved to continue the exchange cycle (Harper (1998) Current Protocols in Pharmacology 2.6.1-10, John Wiley & Sons, Inc.). […] Here we describe the use of the [^35S]GTPγS binding assay using membranes from cells transfected with the human mGlu2 receptor and adapted from Schaffhauser et al. (Molecular Pharmacology, 2003, […]) for the detection of the negative allosteric modulation (NAM) properties of the compounds of this invention.
CHO-cells were cultured to pre-confluence and stimulated with 5 mM butyrate for 24 h. Cells were then collected by scraping in PBS and cell suspension was centrifuged (10 min at 4000 RPM in benchtop centrifuge). Supernatant was discarded and pellet gently resuspended in 50 mM Tris-HCl, pH 7.4 by mixing with an Ultra Turrax homogenizer. The suspension was centrifuged at 12,400 RPM (Sorvall F14S-6x250Y) for 10 minutes and the supernatant discarded. The pellet was homogenized in 5 mM Tris-HCl, pH 7.4 using an Ultra Turrax homogenizer and centrifuged again (13,000 RPM, 20 min, 4° C.). The final pellet was resuspended in 50 mM Tris-HCl, pH 7.4 and stored at −80° C. in appropriate aliquots before use. Protein concentration was determined by the Bradford method (Bio-Rad, USA) with bovine serum albumin as standard.
[^35S]GTPγS Binding Assay
Measurement of mGluR2 negative allosteric modulatory activity of test compounds was performed as follows. Test compounds and glutamate were diluted in assay buffer containing 10 mM HEPES acid, 10 mM HEPES salt, pH 7.4, 100 mM NaCl, 3 mM MgCl2 and 10 μM GDP. Human mGlu2 receptor-containing membranes were thawed on ice and diluted in assay buffer supplemented with 18 μg/ml saponin. Membranes were pre-incubated with compound together with a predefined (˜EC80) concentration of glutamate (60 μM) for 30 min at 30° C. After addition of [^35S]GTPγS (f.c. 0.1 nM), assay mixtures were shaken briefly and further incubated to allow [^35S]GTPγS incorporation on activation (30 minutes, 30° C.). Final assay mixtures contained 7 μg of membrane protein in 10 mM HEPES acid, 10 mM HEPES salt, pH 7.4, 100 mM NaCl, 3 mM MgCl2, 10 μM GDP and 10 μg/ml saponin. Total reaction volume was 200 μl. Reactions were terminated by rapid filtration through Unifilter-96 GF/B plates (Perkin Elmer, Massachusetts, USA) using a 96-well filtermate universal harvester. Filters were washed 6 times with ice-cold 10 mM NaH2PO4/10 mM Na2HPO4, pH 7.4. Filters were then air-dried, and 30 μl of liquid scintillation cocktail (Microscint-O) was added to each well. Membrane-bound radioactivity was counted in a Topcount.
The concentration-response curves of representative compounds of the present invention were generated using the Lexis software interface (developed at J&J). […]

T1 sequence (Q14416 19-872): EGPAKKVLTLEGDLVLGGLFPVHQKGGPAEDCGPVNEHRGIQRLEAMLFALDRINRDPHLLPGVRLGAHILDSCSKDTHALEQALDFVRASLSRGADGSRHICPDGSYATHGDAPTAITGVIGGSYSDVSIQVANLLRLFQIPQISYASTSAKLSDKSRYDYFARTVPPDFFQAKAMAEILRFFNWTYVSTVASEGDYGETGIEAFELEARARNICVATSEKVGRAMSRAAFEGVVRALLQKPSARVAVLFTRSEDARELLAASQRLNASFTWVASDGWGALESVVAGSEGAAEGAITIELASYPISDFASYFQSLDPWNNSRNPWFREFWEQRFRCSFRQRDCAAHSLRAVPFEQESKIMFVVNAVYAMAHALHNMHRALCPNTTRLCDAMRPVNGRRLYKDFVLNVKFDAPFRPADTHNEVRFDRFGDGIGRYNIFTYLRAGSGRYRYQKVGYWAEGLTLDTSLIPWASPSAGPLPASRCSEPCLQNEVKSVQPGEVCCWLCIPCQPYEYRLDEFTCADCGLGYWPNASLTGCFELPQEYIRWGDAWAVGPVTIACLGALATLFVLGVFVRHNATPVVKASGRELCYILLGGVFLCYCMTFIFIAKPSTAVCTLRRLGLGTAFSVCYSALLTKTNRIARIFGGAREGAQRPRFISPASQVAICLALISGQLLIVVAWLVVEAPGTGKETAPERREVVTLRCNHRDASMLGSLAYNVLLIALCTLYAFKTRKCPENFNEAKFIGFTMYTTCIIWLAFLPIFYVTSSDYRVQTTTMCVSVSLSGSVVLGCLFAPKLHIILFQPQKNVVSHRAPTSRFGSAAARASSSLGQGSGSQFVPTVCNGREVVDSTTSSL

Compared with Cc1cc(N2C[C@H](C)n3ncc(-c4c[nH]c(-c5ccc(N)nc5)n4)c3C2=O)ccc1C(F)(F)F [Compound 20], C[C@H]1CN(c2ccc(C(F)(F)F)c(Cl)c2)C(=O)c2c(-c3c[nH]c(-c4cccnc4)n3)cnn21 [Compound 37] is higher in Emax: 107% for the first, 109% for the second.

C[C@H]1CN(c2ccc(C(F)(F)F)cc2)C(=O)c2c(-c3nc(-c4ccc(N)nc4)[nH]c3Br)cnn21 [Compound 9] and C[C@H]1CN(c2ccc(C(F)(F)F)cc2)C(=O)c2c(-c3nc(-c4ccc(N)nc4)[nH]c3Cl)cnn21 [Compound 3] are the same in Emax: 108% for the first, 108% for the second.

Compared with Cc1cc(-c2ncc(-c3cnn4c3C(=O)N(c3ccc(C(F)(F)F)cc3)C[C@@H]4C)[nH]2)ccn1 [Compound 41], CNc1ncc(-c2cnn3c2C(=O)N(c2ccc(C(F)(F)F)cc2)C[C@@H]3C)[nH]1 [Compound 15] is lower in Emax: 106% for the first, 102% for the second.

First: CC(C)c1nc(-c2cnn3c2C(=O)N(c2ccc(C(F)(F)F)cc2)C[C@@H]3C)c[nH]1 [Compound 6]
Second: C[C@H]1CN(c2ccc(C(F)(F)F)cc2)C(=O)c2c(-c3nc[nH]c3Br)cnn21 [Compound 1]
The Emax of the first is higher: 104% for the first, 99.3% for the second.

C[C@H]1CN(c2ccc(C(F)(F)F)cc2)C(=O)c2c(-c3cnc(C4CCC4)[nH]3)cnn21 [Compound 40] and C[C@H]1CN(c2ccc(C(F)(F)F)cc2)C(=O)c2c(-c3cnc(C#N)[nH]3)cnn21 [Compound 10] are the same in Emax: 107% for the first, 107% for the second.

Going from C[C@H]1CN(c2ccc(C(F)(F)F)c(Cl)c2)C(=O)c2c(-c3c[nH]c(-c4ccccn4)n3)cnn21 [Compound 39] to Cc1[nH]c(-c2ccccn2)nc1-c1cnn2c1C(=O)N(c1ccc(C(F)(F)F)c(Cl)c1)C[C@@H]2C [Compound 38], the Emax rises from 104% to 105%.

Going from C[C@H]1CN(c2ccc(C(F)(F)F)cc2)C(=O)c2c(-c3c[nH]c(-c4ccccc4)n3)cnn21 [Compound 5] to Cc1[nH]c(-c2ccccn2)nc1-c1cnn2c1C(=O)N(c1ccc(C(F)(F)F)cc1)C[C@@H]2C [Compound 17], the Emax rises from 105% to 106%.

Work on C[C@H]1CN(c2ccc(C(F)(F)F)c(Cl)c2)C(=O)c2c(-c3c[nH]c(C4CCC4)n3)cnn21 [Compound 42] yielded an Emax of 109%.

Same assay, conditions: membranes from CHO cells transfected with human mGlu2 receptor; glutamate 60 μM (~EC80); read-out: GTPγS-hmGluR2 anGT pIC50 (converted)

Going from Cc1cc(N2C[C@H](C)n3ncc(-c4c[nH]c(-c5ccc(N)nc5)n4)c3C2=O)ccc1C(F)(F)F [Compound 20] to C[C@H]1CN(c2ccc(C(F)(F)F)c(Cl)c2)C(=O)c2c(-c3c[nH]c(-c4cccnc4)n3)cnn21 [Compound 37], the IC50 falls from 53.7 nM to 12.9 nM (4.2-fold).

C[C@H]1CN(c2ccc(C(F)(F)F)cc2)C(=O)c2c(-c3nc(-c4ccc(N)nc4)[nH]c3Br)cnn21 [Compound 9] and C[C@H]1CN(c2ccc(C(F)(F)F)cc2)C(=O)c2c(-c3nc(-c4ccc(N)nc4)[nH]c3Cl)cnn21 [Compound 3] are within 1.5-fold of each other in IC50: 34.7 nM for the first, 25.1 nM for the second.

Cc1cc(-c2ncc(-c3cnn4c3C(=O)N(c3ccc(C(F)(F)F)cc3)C[C@@H]4C)[nH]2)ccn1 [Compound 41] and CNc1ncc(-c2cnn3c2C(=O)N(c2ccc(C(F)(F)F)cc2)C[C@@H]3C)[nH]1 [Compound 15] are within 1.5-fold of each other in IC50: 166 nM for the first, 170 nM for the second.

Compared with CC(C)c1nc(-c2cnn3c2C(=O)N(c2ccc(C(F)(F)F)cc2)C[C@@H]3C)c[nH]1 [Compound 6], C[C@H]1CN(c2ccc(C(F)(F)F)cc2)C(=O)c2c(-c3nc[nH]c3Br)cnn21 [Compound 1] is 2.7-fold lower in IC50: 30.9 nM for the first, 11.5 nM for the second.

Going from C[C@H]1CN(c2ccc(C(F)(F)F)cc2)C(=O)c2c(-c3cnc(C4CCC4)[nH]3)cnn21 [Compound 40] to C[C@H]1CN(c2ccc(C(F)(F)F)cc2)C(=O)c2c(-c3cnc(C#N)[nH]3)cnn21 [Compound 10], the IC50 rises from 6.92 nM to 36.3 nM (5.2-fold).

First: C[C@H]1CN(c2ccc(C(F)(F)F)c(Cl)c2)C(=O)c2c(-c3c[nH]c(-c4ccccn4)n3)cnn21 [Compound 39]
Second: Cc1[nH]c(-c2ccccn2)nc1-c1cnn2c1C(=O)N(c1ccc(C(F)(F)F)c(Cl)c1)C[C@@H]2C [Compound 38]
The IC50 of the first is 2.6-fold lower: 8.32 nM for the first, 21.4 nM for the second.

First: C[C@H]1CN(c2ccc(C(F)(F)F)cc2)C(=O)c2c(-c3c[nH]c(-c4ccccc4)n3)cnn21 [Compound 5]
Second: Cc1[nH]c(-c2ccccn2)nc1-c1cnn2c1C(=O)N(c1ccc(C(F)(F)F)cc1)C[C@@H]2C [Compound 17]
The IC50 of the first is 5.3-fold lower: 27.5 nM for the first, 145 nM for the second.

C[C@H]1CN(c2ccc(C(F)(F)F)c(Cl)c2)C(=O)c2c(-c3c[nH]c(C4CCC4)n3)cnn21 [Compound 42] gave an IC50 of 1.86 nM.

System: not given
Assay: not given
Conditions: not given

First: Cc1cc(N2C[C@H](C)n3ncc(-c4c[nH]c(-c5ccc(N)nc5)n4)c3C2=O)ccc1C(F)(F)F [Compound 20]
Second: C[C@H]1CN(c2ccc(C(F)(F)F)c(Cl)c2)C(=O)c2c(-c3c[nH]c(-c4cccnc4)n3)cnn21 [Compound 37]
The melting point of the first is higher: 275.27 °C for the first, 188.06 °C for the second.

First: CC(C)c1nc(-c2cnn3c2C(=O)N(c2ccc(C(F)(F)F)cc2)C[C@@H]3C)c[nH]1 [Compound 6]
Second: C[C@H]1CN(c2ccc(C(F)(F)F)cc2)C(=O)c2c(-c3nc[nH]c3Br)cnn21 [Compound 1]
The melting point of the first is lower: 156.03 °C for the first, 228.68 °C for the second.

First: C[C@H]1CN(c2ccc(C(F)(F)F)cc2)C(=O)c2c(-c3c[nH]c(-c4ccccc4)n3)cnn21 [Compound 5]
Second: Cc1[nH]c(-c2ccccn2)nc1-c1cnn2c1C(=O)N(c1ccc(C(F)(F)F)cc1)C[C@@H]2C [Compound 17]
The melting point of the first is lower: 119.88 °C for the first, 198.73 °C for the second.

First: CNc1ncc(-c2cnn3c2C(=O)N(c2ccc(C(F)(F)F)cc2)C[C@@H]3C)[nH]1 [Compound 15]
Second: C[C@H]1CN(c2ccc(C(F)(F)F)cc2)C(=O)c2c(-c3cnc(C#N)[nH]3)cnn21 [Compound 10]
The melting point of the first is lower: 205 °C for the first, 219.19 °C for the second.

First: C[C@H]1CN(c2ccc(C(F)(F)F)c(Cl)c2)C(=O)c2c(-c3c[nH]c(C4CCC4)n3)cnn21 [Compound 42]
Second: Cc1[nH]c(-c2ccccn2)nc1-c1cnn2c1C(=O)N(c1ccc(C(F)(F)F)c(Cl)c1)C[C@@H]2C [Compound 38]
The melting point of the first is lower: 173.18 °C for the first, 232.11 °C for the second.
